According to ChEMBL document CHEMBL5726853, “3-acetylenyl-pyrazole-pyrimidine derivative, and preparation method therefor and uses thereof” (2019):

Target: Proto-oncogene tyrosine-protein kinase Src (Homo sapiens, UniProt P12931)
Sequence (P12931 2-536 limits assumed): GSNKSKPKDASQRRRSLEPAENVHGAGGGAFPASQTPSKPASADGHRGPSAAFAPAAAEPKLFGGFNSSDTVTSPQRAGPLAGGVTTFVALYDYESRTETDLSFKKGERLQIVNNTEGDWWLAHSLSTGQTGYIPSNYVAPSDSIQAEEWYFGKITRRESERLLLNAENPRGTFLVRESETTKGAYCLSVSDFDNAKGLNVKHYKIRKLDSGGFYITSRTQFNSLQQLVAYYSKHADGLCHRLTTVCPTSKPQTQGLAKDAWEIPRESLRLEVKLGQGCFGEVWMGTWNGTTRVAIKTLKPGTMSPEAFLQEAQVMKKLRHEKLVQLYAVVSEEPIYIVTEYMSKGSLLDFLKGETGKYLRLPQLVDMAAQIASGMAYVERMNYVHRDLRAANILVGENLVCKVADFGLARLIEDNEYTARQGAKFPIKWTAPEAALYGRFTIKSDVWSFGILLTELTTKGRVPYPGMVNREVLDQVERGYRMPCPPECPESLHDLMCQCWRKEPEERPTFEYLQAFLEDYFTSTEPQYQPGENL

In the case of `Cc1ccc(NC(=O)c2ccc(CN3CCN(C)CC3)cc2)cc1C#Cc1nn(C(C)C)c2ncnc(N)c12`, the IC50 is reported as 4 nM.
